Assay results published in patent publication US9757424B2, “Compositions and methods of treating gliomas” (BioMed Valley Discoveries, Inc., priority 2011, dated 2017).

Legend:
U87MG tumor fragments = assay: animal or person; details: for combination effect with temozolomide (median group tumor burden at Day 36): dosed in combination with 5 mg/kg temozolomide, FIG. 19
Description: HRLN female nu/nu mice were seeded with 1 mm^3 U87MG tumor fragments subcutaneously in the flank. Final caliper and body weight measurements were taken on the last day of the study.
All animals were assessed periodically for body weight, as well as tumor burden, using standard protocols with mechanical calipers. […] Dosing was stopped for any group with two measurements of mean body weight loss of greater than 20%. The group was not euthanized, and recovery was allowed. Within a group with greater than 20% weight loss, individuals reaching the individual body weight loss endpoint were euthanized. If the group body weight loss was recovered, dosing may resume. […] Dosing was then resumed with the candidate agent at half the original dose. Animals were monitored as a group. The endpoint of the experiment was a mean tumor weight in control group (or group 1) of 2000 mm^3 or 60 days, whichever comes first. When the endpoint was reached, all the animals were euthanized.

[1] = tested on: U87MG human glioblastoma xenografts; assay: U87MG human glioblastoma xenograft, tumor growth delay, 49-day study (Example 2);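 further: female athymic nude mice with subcutaneous tumors, groups of ten, tumors measured twice weekly, endpoint at 2000 mm^3 tumor volume or Day 49, treated compared with control mice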
Description: The experiment consisted of groups (n=10) of female athymic nude mice bearing subcutaneous U87MG xenografts (75-144 mm^3) on Day 1. Candesartan was evaluated as monotherapies at dosages of 1, 5, 10 and 50 mg/kg administered intraperitoneally (i.p.) on a once daily for twenty-one days (qd×21) schedule. […] Dosing was initiated on Day 1, and tumors were measured twice each week until the study was ended on Day 49. Animals were monitored individually and each mouse was euthanized for endpoint when its tumor attained a volume of 2000 mm^3 (about 2 grams) or on the final day (Day 49), whichever came first. Tumor samples were collected at endpoint, and histopathology analyses were performed.
The time to endpoint (TTE) was calculated for each mouse. Treatment outcome was determined from percent tumor growth delay (% TGD), defined as the percent increase in median TTE of treated versus control mice, with differences in the TTE values between groups deemed statistically significant at P 0.05 using logrank survival analysis. Animals were also monitored for partial regression (PR) and complete regression (CR) responses. Treatment tolerability was assessed by body weight measurements and frequent observation for signs of treatment-related (TR) toxicity.
Treatment response was determined from an analysis of percent tumor growth delay (% TGD), defined as the percent increase in the median time to endpoint (TTE) in treated versus control mice; by logrank significance of differences in survival among treatment groups; and by regression responses. Plots of group mean tumor growth were also considered. Treatment tolerability was assessed by body weight measurements and frequent observation for clinical symptoms of treatment-related (TR) side effects.
Xenografts were initiated with U87MG human glioblastomas (Piedmont Research Center, Morrisville, N.C.) by serial subcutaneous transplantation in athymic nude mice. Each test mouse received a U87MG tumor fragment (1 mm^3) implanted subcutaneously in the right flank, and the growth of tumors was monitored as the average size approached the target range of 80 to 120 mm^3. […] Tumor volume was calculated using the formula: Tumor Volume (mm^3)=w^2×l/2 where w=width and l=length in mm of a U87MG tumor. Tumor weight may be estimated with the assumption that 1 mg is equivalent to 1 mm^3 of tumor volume. Therapeutic Agents
Doses of valsartan and candesartan were each formulated weekly, and were stored at 4° C. Valsartan dosing solutions were formulated at concentrations of 15 and 3 mg/mL to yield the desired 150 and 30 mg/kg dosages, respectively, in a dosing volume of 0.2 mL per 20 grams body weight (10 mL/kg). The required amount of valsartan powder for the 15 mg/mL solution was suspended in sterile saline, then dissolved with 0.1 N NaOH and pH adjusted to 7.4 with 0.1 N HCl. The 3 mg/mL valsartan dosing solution was prepared by diluting an aliquot of the 15 mg/mL valsartan solution with sterile saline. Candesartan doses were formulated in 0.5% carboxymethyl cellulose (CMC) in deionized water at concentrations of 5, 1, 0.5 and 0.1 mg/mL to yield the desired 50, 10, 5 and 1 mg/kg dosages, respectively, in a dosing volume of 10 mL/kg.
Each test agent was administered intraperitoneally (i.p.) once daily for twenty-one days (qd×21), unless otherwise indicated.
Group 1 was not treated and served as the control group for calculation of % TGD. […] Groups 4-7 received candesartan at 50, 10, 5 or 1 mg/kg, respectively. […] All doses were scaled to the body weights of the individual animals.
Tumors were measured twice each week using calipers.

[2] = combination: temozolomide 5 po qd x 5 + agent qd x 30 (doses as under E7)
[3] = combination: temozolomide 5 po qd x 5 + agent qd x 30 (doses as under E7), number of animals
[4] = Group 4: candesartan 50 mg/kg ip qd x 21
[5] = Group 5: candesartan 10 mg/kg ip qd x 21
[6] = Group 6: candesartan 5 mg/kg ip qd x 21
[7] = Group 7: candesartan 1 mg/kg ip qd x 21

Q: How did the “MTV(n) Day 29 (median tumor volume)” value (U87MG tumor fragments; combination: temozolomide 5 po qd x 5 + agent qd x 30 (Candesartan 10 ip, Valsartan 30 ip, Carvedilol 200 po, Irbesartan 100 po, Amlodipine 10 ip, Clonidine 1 ip, Olmesartan 10 po, Ramipril 5 po, Enalapril 5 ip, Benazepril 10 ip, Quinapril 15 po, Aliskiren 50 ip, Guanabenz 1 ip, Diltiazem 20 po, Lercanidipine 3 po, Labetalol 10 sc)) turn out when `CCOc1nc2cccc(C(=O)OC(C)OC(=O)OC3CCCCC3)c2n1Cc1ccc(-c2ccccc2-c2nn[nH]n2)cc1` (stereo not drawn) [Candesartan, candesartan cilexetil] was run?
A: 32 (8) mm^3

Q: And the “Deaths NTR (non-treatment-related death)” value (U87MG tumor fragments; [2])?
A: 0

Q: What about the “Deaths TR (treatment-related death)” value (U87MG tumor fragments; [2]) of the same compound?
A: 0

Q: What about the “Mean BW Nadir, day of nadir” value (U87MG tumor fragments; [2]) of the same compound?
A: Day 3

Q: What about the “Regression CR (complete regression)” value (U87MG tumor fragments; [3]) of the same compound?
A: 0

Q: And the “Regression PR (partial regression)” value (U87MG tumor fragments; [3])?
A: 6

Q: And the “% TGI (percent tumor growth inhibition, compared to Group 1)” value (U87MG tumor fragments; combination: temozolomide 5 po qd x 5 + agent qd x 30 (doses as under E7), vs Group 1 temozolomide 5 alone)?
A: 92%

Q: What about the “% TGD (vs Group 1)” value [1, 4] of the same compound?
A: 9%

Q: And the “Deaths NTR” value [1, 4]?
A: 0

Q: What about the “Deaths TR” value [1, 4] of the same compound?
A: 0

Q: What about the “MTV (n) Day 49” value [1, 4] of the same compound?
A: 1 (1) mm^3

Q: And the “Median TTE” value [1, 4]?
A: 12.7 days

Q: What about the “Regressions CR” value [1, 4] of the same compound?
A: 1

Q: What about the “Regressions PR” value [1, 4] of the same compound?
A: 0

Q: And the “Regressions TFS” value [1, 4]?
A: 1

Q: And the “T − C (TGD vs Group 1)” value [1, 4]?
A: 1.1 days

Q: What about the “% TGD (vs Group 1)” value [1, 5] of the same compound?
A: 20%

Q: What about the “Deaths NTR” value [1, 5] of the same compound?
A: 0

Q: What about the “Deaths TR” value [1, 5] of the same compound?
A: 0

Q: And the “Median TTE” value [1, 5]?
A: 13.9 days

Q: What about the “Regressions CR” value [1, 5] of the same compound?
A: 0

Q: What about the “Regressions PR” value [1, 5] of the same compound?
A: 0

Q: And the “Regressions TFS” value [1, 5]?
A: 0

Q: And the “T − C (TGD vs Group 1)” value [1, 5]?
A: 2.3 days

Q: And the “% TGD (vs Group 1)” value [1, 6]?
A: 16%

Q: What about the “Deaths NTR” value [1, 6] of the same compound?
A: 0

Q: And the “Deaths TR” value [1, 6]?
A: 0

Q: And the “Median TTE” value [1, 6]?
A: 13.5 days

Q: And the “Regressions CR” value [1, 6]?
A: 0

Q: And the “Regressions PR” value [1, 6]?
A: 0

Q: And the “Regressions TFS” value [1, 6]?
A: 0

Q: And the “T − C (TGD vs Group 1)” value [1, 6]?
A: 1.9 days

Q: What about the “% TGD (vs Group 1)” value [1, 7] of the same compound?
A: 7%

Q: And the “Deaths TR” value [1, 7]?
A: 0

Q: And the “Median TTE” value [1, 7]?
A: 12.4 days

Q: What about the “Regressions CR” value [1, 7] of the same compound?
A: 0

Q: And the “Regressions PR” value [1, 7]?
A: 0

Q: And the “Regressions TFS” value [1, 7]?
A: 0

Q: What about the “T − C (TGD vs Group 1)” value [1, 7] of the same compound?
A: 0.8 days

Q: What about the “Deaths NTR” value ([1]; Group 7: candesartan 1 mg/kg ip qd x 21, accidental death on Day 5) of the same compound?
A: 1

Q: And the efficacy conclusion ([1]; candesartan monotherapy 1, 5, 10, 50 mg/kg i.p. qd×21)?
A: not efficacious as monotherapy

Q: Which “Deaths NTR (non-treatment-related death)” value (U87MG tumor fragments; [2]) does the source give for `COc1ccccc1OCCNCC(O)COc1cccc2[nH]c3ccccc3c12` (stereo not drawn) [Carvedilol] here?
A: 0

Q: And the “Deaths TR (treatment-related death)” value (U87MG tumor fragments; [2])?
A: 0

Q: What does the source list for `Clc1cccc(Cl)c1N=C1NCCN1` [Clonidine]?
A: Deaths NTR (non-treatment-related death) (U87MG tumor fragments; [2]): 0; Deaths TR (treatment-related death) (U87MG tumor fragments; [2]): 0; Mean BW Nadir, day of nadir (U87MG tumor fragments; [2]): Day 3

Q: `CCOC(=O)[C@H](CCc1ccccc1)N[C@@H](C)C(=O)N1CCC[C@H]1C(=O)O` [Enalapril] was tested. Which “Deaths NTR (non-treatment-related death)” value (U87MG tumor fragments; [2]) did it give?
A: 0

Q: What about the “Deaths TR (treatment-related death)” value (U87MG tumor fragments; [2]) of the same compound?
A: 0

Q: Which results are given for `N=C(N)N/N=C/c1c(Cl)cccc1Cl` [Guanabenz]?
A: Deaths NTR (non-treatment-related death) (U87MG tumor fragments; [2]): 0; Deaths TR (treatment-related death) (U87MG tumor fragments; [2]): 0

Q: With `CC(CCc1ccccc1)NCC(O)c1ccc(O)c(C(N)=O)c1` (stereo not drawn) [Labetalol] as the compound, how does the “Deaths NTR (non-treatment-related death)” value (U87MG tumor fragments; [2]) read?
A: 0

Q: What about the “Deaths TR (treatment-related death)” value (U87MG tumor fragments; [2]) of the same compound?
A: 0

Q: With `COCCCOc1cc(C[C@@H](C[C@H](N)[C@@H](O)C[C@H](C(=O)NCC(C)(C)C(N)=O)C(C)C)C(C)C)ccc1OC` [aliskerin, aliskiren] as the compound, how does the “Deaths NTR (non-treatment-related death)” value (U87MG tumor fragments; [2]) read?
A: 0

Q: And the “Deaths TR (treatment-related death)” value (U87MG tumor fragments; [2])?
A: 0

Q: Which results are given for `CCOC(=O)C1=C(COCCN)NC(C)=C(C(=O)OC)C1c1ccccc1Cl` (stereo not drawn) [amlodipine]?
A: Deaths NTR (non-treatment-related death) (U87MG tumor fragments; [2]): 1; Deaths TR (treatment-related death) (U87MG tumor fragments; [2]): 0; Mean BW Nadir, day of nadir (U87MG tumor fragments; [2]): Day 3

Q: Which “Deaths NTR (non-treatment-related death)” value (U87MG tumor fragments; [2]) does the source give for `CCOC(=O)[C@H](CCc1ccccc1)N[C@H]1CCc2ccccc2N(CC(=O)O)C1=O` [benazepril] here?
A: 1

Q: And the “Deaths TR (treatment-related death)” value (U87MG tumor fragments; [2])?
A: 0

Q: And the “combination effect with temozolomide (median group tumor burden at Day 36)” value (“combination effect with temozolomide” for short) (U87MG tumor fragments)?
A: next in rank-order potency

Q: With `COc1ccc([C@@H]2Sc3ccccc3N(CCN(C)C)C(=O)[C@@H]2OC(C)=O)cc1` [diltiazem] as the compound, how does the “Deaths NTR (non-treatment-related death)” value (U87MG tumor fragments; [2]) read?
A: 0

Q: And the “Deaths TR (treatment-related death)” value (U87MG tumor fragments; [2])?
A: 0

Q: What about the “combination effect with temozolomide” value (U87MG tumor fragments) of the same compound?
A: modest combination effects

Q: With `CCCCC1=NC2(CCCC2)C(=O)N1Cc1ccc(-c2ccccc2-c2nnn[nH]2)cc1` [irbesartan] as the compound, how does the “Deaths NTR (non-treatment-related death)” value (U87MG tumor fragments; [2]) read?
A: 0

Q: What about the “Deaths TR (treatment-related death)” value (U87MG tumor fragments; [2]) of the same compound?
A: 0

Q: And the “Mean BW Nadir, day of nadir” value (U87MG tumor fragments; [2])?
A: Day 3

Q: `COC(=O)C1=C(C)NC(C)=C(C(=O)OC(C)(C)CN(C)CCC(c2ccccc2)c2ccccc2)C1c1cccc([N+](=O)[O-])c1` (stereo not drawn) [lercanidipine] was tested. Which “combination effect with temozolomide” value (U87MG tumor fragments) did it give?
A: modest combination effects

Q: Which “Mean BW Nadir, day of nadir” value (U87MG tumor fragments; [2]) does the source give for `CCCc1nc(C(C)(C)O)c(C(=O)O)n1Cc1ccc(-c2ccccc2-c2nnn[nH]2)cc1` [olmesartan] here?
A: Day 3

Q: Which results are given for `CCOC(=O)[C@H](CCc1ccccc1)N[C@@H](C)C(=O)N1Cc2ccccc2C[C@H]1C(=O)O` [quinapril]?
A: Deaths NTR (non-treatment-related death) (U87MG tumor fragments; [2]): 0; Deaths TR (treatment-related death) (U87MG tumor fragments; [2]): 0; Mean BW Nadir, day of nadir (U87MG tumor fragments; [2]): Day 3; combination effect with temozolomide (median group tumor burden at Day 36) (U87MG tumor fragments): next in rank-order potency

Q: Which results are given for `CCOC(=O)[C@H](CCc1ccccc1)N[C@@H](C)C(=O)N1[C@H](C(=O)O)C[C@@H]2CCC[C@@H]21` [ramipril]?
A: Deaths NTR (non-treatment-related death) (U87MG tumor fragments; [2]): 0; Deaths TR (treatment-related death) (U87MG tumor fragments; [2]): 0; Mean BW Nadir, day of nadir (U87MG tumor fragments; [2]): Day 3; combination effect with temozolomide (median group tumor burden at Day 36) (U87MG tumor fragments): next in rank-order potency

Q: What does the source list for `CCCCC(=O)N(Cc1ccc(-c2ccccc2-c2nnn[nH]2)cc1)[C@H](C(=O)O)C(C)C` [valsartan]?
A: Deaths NTR (non-treatment-related death) (U87MG tumor fragments; [2]): 0; Deaths TR (treatment-related death) (U87MG tumor fragments; [2]): 0
